According to ChEMBL document CHEMBL1155044, “Elucidation of different binding modes of purine nucleosides to human deoxycytidine kinase” (J Med Chem, 2008):

Key:
[1] = test system: Nc1nc(O)c2ncn([C@H]3C[C@H](O)[C@@H](CO)O3)c2n1; conditions: Homo sapiens
[2] = test system: Nc1nc(O)c2ncn([C@H]3C[C@H](O)[C@@H](CO)O3)c2n1; conditions: Homo sapiens; remark: listed apart in the source
[3] = organism: Homo sapiens
[4] = organism: Homo sapiens; remark: listed apart in the source

Chain of Deoxycytidine kinase (Homo sapiens), P27707 (P27707 whole entry): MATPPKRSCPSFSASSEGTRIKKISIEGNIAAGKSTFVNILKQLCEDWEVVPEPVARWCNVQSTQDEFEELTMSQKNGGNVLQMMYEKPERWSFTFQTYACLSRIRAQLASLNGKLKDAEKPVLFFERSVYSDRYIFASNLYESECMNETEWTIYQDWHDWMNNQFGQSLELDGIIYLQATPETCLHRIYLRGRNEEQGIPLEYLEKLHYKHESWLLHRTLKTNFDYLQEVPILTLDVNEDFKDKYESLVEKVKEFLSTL

Row | Molecule | Km [1] [µM] | Km [2] [µM] | kcat [2] [s⁻¹] | Km [3] [µM] | kcat [3] [s⁻¹] | Km [4] [µM] | kcat [4] [s⁻¹]
1 | Deoxycytidine kinase (Homo sapiens), P27707 | 181 | 41 | 0.53 | – | – | – | –
2 | Nc1nc(O)c2ncn([C@H]3C[C@H](O)[C@@H](CO)O3)c2n1 | – | – | – | 700 | 3.6 | 10.4 | 0.43
